Read-outs that look alike come from different tables or passages of the source.
Experiment: 14-day oral gavage toxicokinetic study in rats
Assay type: in vivo
Details: rat, plasma, po; for concentration at 0.5 h / concentration at 1 h / concentration at 2 h / concentration at 4 h / concentration at 8 h / concentration at 12 h / concentration at 24 h / concentration at […]: rats; for half-life: read-out: t½ (converted)
Description: Plasma was obtained from blood samples collected from rats in a composite sampling scheme, with 3 samples collected per sex, per dose, at each target collection time, as illustrated in Table 21 to Table 25. Samples were collected from the vehicle control group on Day 1 and Day 14 at 3 hour after administration. […] Blood samples were collected in tubes containing K3EDTA as an anticoagulant and placed on ice until processed to plasma via centrifugation. Samples were stored frozen at −80° C. until shipment to the bioanalytical laboratory for analysis.
The following parameters were determined:
Cmax: Maximum observed plasma concentration (ng/mL).
A value of 0 ng/mL was assigned to all values below the lower limit of quantitation (BLQ, <10.0 ng/mL).
AUC(0-inf): Area under the plasma concentration vs. time curve extrapolated from 0 to infinity (ng*h/mL), calculated as AUC(0-t)+AUC(t-inf) where AUC(t-inf) is calculated as last measurable concentration (CLast) divided by ke, where ke is the elimination rate constant determined by linear regression of the last three analytically measured points on the log plasma concentration vs. time curve. The selection criteria of the data points for inclusion in the calculation of ke required that at least three data points representing the terminal phase (after Tmax) were regressed and that R2≧0.850 when rounded.
CL: Clearance (L/h/kg), calculated as the dose divided by AUC(0-t).
Vd: Volume of distribution (L/kg), calculated as dose divided by the product of ke and AUC(0-inf).
Vdss: Steady state volume of distribution (L/kg), calculated as clearance […] mean residence time, where mean residence time is calculated as the area under the first moment curve divided by AUC(0-t).
t½: Elimination half-life (h), calculated as ln(2)/ke, where ke is the elimination rate constant determined by linear regression. Half-life was defined as not determined if regression criteria (specified in AUC(0-inf) above) were not met.
Cmax/Dose: Normalized Cmax, calculated as Cmax divided by total dose.
AUC/Dose: Normalized AUC, calculated as AUC(0-t) divided by total dose.
ii. Statistical Analysis Mean and standard deviation (SD) were calculated in Watson. Values of BLQ were assigned a value of 0 ng/mL for mean calculations. Concentration values and derived TK parameters were reported to three significant figures.

[1] = female, 30 mg/kg, oral 30 mg/kg, Study Day 1, Female
[2] = female, 30 mg/kg, oral 30 mg/kg, Study Day 14, Female
[3] = male, 2 mg/kg, oral 2 mg/kg, Study Day 1, Male
[4] = male, 2 mg/kg, oral 2 mg/kg, Study Day 14, Male

`CN1CCN(c2ccc(Nc3ncc4cc5n(c4n3)C3(CCCCC3)CNC5=O)nc2)CC1` [Compound 1, 2′-((5-(4-methylpiperazin-1-yl)pyridin-2-yl)amino)-7′,8′-dihydro-6′H-spiro[cyclohexane-1,9′-pyrazino[1′,2′:1,5]pyrrolo[2,3-d]pyrimidin]-6′-one] gave a concentration at 0.5 h (female, 30 mg/kg, Mean Compound 1 Plasma Concentration, oral 30 mg/kg, Day 1, 0.5 h, Female) of 2160 ng/mL, a concentration at 1 h (female, 30 mg/kg, Mean Compound 1 Plasma Concentration, oral 30 mg/kg, Day 1, 1 h, Female) of 2140 ng/mL and a concentration at 2 h (female, 30 mg/kg, Mean Compound 1 Plasma Concentration, oral 30 mg/kg, Day 1, 2 h, Female) of 3090 ng/mL. For the same molecule, the concentration at 4 h (female, 30 mg/kg, Mean Compound 1 Plasma Concentration, oral 30 mg/kg, Day 1, 4 h, Female) was 2510 ng/mL, the concentration at 8 h (female, 30 mg/kg, Mean Compound 1 Plasma Concentration, oral 30 mg/kg, Day 1, 8 h, Female) was 2470 ng/mL and the concentration at 12 h (female, 30 mg/kg, Mean Compound 1 Plasma Concentration, oral 30 mg/kg, Day 1, 12 h, Female) was 1940 ng/mL. The concentration at 24 h (female, 30 mg/kg, Mean Compound 1 Plasma Concentration, oral 30 mg/kg, Day 1, 24 h, Female) was 284 ng/mL, the concentration at […] (female, 30 mg/kg, Mean Compound 1 Plasma Concentration, oral 30 mg/kg, Day 1, […], Female) was 92.9 ng/mL and the concentration at 0.5 h (female, 30 mg/kg, Mean Compound 1 Plasma Concentration, oral 30 mg/kg, Day 14, 0.5 h, Female) was 1540 ng/mL. For the same molecule, the concentration at 1 h (female, 30 mg/kg, Mean Compound 1 Plasma Concentration, oral 30 mg/kg, Day 14, 1 h, Female) was 2230 ng/mL, the concentration at 2 h (female, 30 mg/kg, Mean Compound 1 Plasma Concentration, oral 30 mg/kg, Day 14, 2 h, Female) was 2010 ng/mL and the concentration at 4 h (female, 30 mg/kg, Mean Compound 1 Plasma Concentration, oral 30 mg/kg, Day 14, 4 h, Female) was 2320 ng/mL. For the same molecule, the concentration at 8 h (female, 30 mg/kg, Mean Compound 1 Plasma Concentration, oral 30 mg/kg, Day 14, 8 h, Female) was 1960 ng/mL, the concentration at 12 h (female, 30 mg/kg, Mean Compound 1 Plasma Concentration, oral 30 mg/kg, Day 14, 12 h, Female) was 2290 ng/mL and the concentration at 24 h (female, 30 mg/kg, Mean Compound 1 Plasma Concentration, oral 30 mg/kg, Day 14, 24 h, Female) was 322 ng/mL. The concentration at […] (female, 30 mg/kg, Mean Compound 1 Plasma Concentration, oral 30 mg/kg, Day 14, […], Female) was 537 ng/mL, the AUC(0-inf) [1] was 43800 ng·h/mL and the AUC(0-t) [1] was 41800 ng·h/mL. It also gave a Cmax [1] of 3090 ng/mL, a Tmax [1] of 2 h and a half-life [1] of 4.92 h. It also gave an AUC(0-inf) [2] of 43200 ng·h/mL, an AUC(0-t) [2] of 40600 ng·h/mL and a Cmax [2] of 2320 ng/mL. The Tmax [2] was 4 h, the half-life [2] was 5.56 h and the concentration at 1 h (male, 2 mg/kg, Compound 1 Plasma Concentration, Male, Day 1, 1 h, daily oral 2 mg/kg (Group 7), individual animals) was 59.1 ng/mL. For the same molecule, the concentration at 2 h (male, 2 mg/kg, Compound 1 Plasma Concentration, Male, Day 1, 2 h, daily oral 2 mg/kg (Group 7), individual animals) was 97.4 ng/mL, the concentration at 4 h (male, 2 mg/kg, Compound 1 Plasma Concentration, Male, Day 1, 4 h, daily oral 2 mg/kg (Group 7), individual animals) was 122 ng/mL and the concentration at 8 h (male, 2 mg/kg, Compound 1 Plasma Concentration, Male, Day 1, 8 h, daily oral 2 mg/kg (Group 7), individual animals) was 99 ng/mL. For the same molecule, the concentration at 12 h (male, 2 mg/kg, Compound 1 Plasma Concentration, Male, Day 1, 12 h, daily oral 2 mg/kg (Group 7), individual animals) was 51.9 ng/mL, the concentration at 0.5 h (male, 2 mg/kg, Compound 1 Plasma Concentration, Male, Day 14, 0.5 h, daily oral 2 mg/kg (Group 7), individual animals) was 36.3 ng/mL and the concentration at 2 h (male, 2 mg/kg, Compound 1 Plasma Concentration, Male, Day 14, 2 h, daily oral 2 mg/kg (Group 7), individual animals) was 84.3 ng/mL. The concentration at 4 h (male, 2 mg/kg, Compound 1 Plasma Concentration, Male, Day 14, 4 h, daily oral 2 mg/kg (Group 7), individual animals) was 117 ng/mL, the concentration at 8 h (male, 2 mg/kg, Compound 1 Plasma Concentration, Male, Day 14, 8 h, daily oral 2 mg/kg (Group 7), individual animals) was 68.7 ng/mL and the concentration at 12 h (male, 2 mg/kg, Compound 1 Plasma Concentration, Male, Day 14, 12 h, daily oral 2 mg/kg (Group 7), individual animals) was 65.7 ng/mL. For the same molecule, the concentration at 0.5 h (male, 2 mg/kg, Mean Compound 1 Plasma Concentration, oral 2 mg/kg, Day 1, 0.5 h, Male) was 57.7 ng/mL, the concentration at 1 h (male, 2 mg/kg, Mean Compound 1 Plasma Concentration, oral 2 mg/kg, Day 1, 1 h, Male) was 57.1 ng/mL and the concentration at 2 h (male, 2 mg/kg, Mean Compound 1 Plasma Concentration, oral 2 mg/kg, Day 1, 2 h, Male) was 102 ng/mL. The concentration at 8 h (male, 2 mg/kg, Mean Compound 1 Plasma Concentration, oral 2 mg/kg, Day 1, 8 h, Male) was 90.4 ng/mL, the concentration at 12 h (male, 2 mg/kg, Mean Compound 1 Plasma Concentration, oral 2 mg/kg, Day 1, 12 h, Male) was 53.7 ng/mL and the concentration at 0.5 h (male, 2 mg/kg, Mean Compound 1 Plasma Concentration, oral 2 mg/kg, Day 14, 0.5 h, Male) was 47 ng/mL. The concentration at 1 h (male, 2 mg/kg, Mean Compound 1 Plasma Concentration, oral 2 mg/kg, Day 14, 1 h, Male) was 57.1 ng/mL, the concentration at 2 h (male, 2 mg/kg, Mean Compound 1 Plasma Concentration, oral 2 mg/kg, Day 14, 2 h, Male) was 94.9 ng/mL and the concentration at 4 h (male, 2 mg/kg, Mean Compound 1 Plasma Concentration, oral 2 mg/kg, Day 14, 4 h, Male) was 116 ng/mL. The concentration at 8 h (male, 2 mg/kg, Mean Compound 1 Plasma Concentration, oral 2 mg/kg, Day 14, 8 h, Male) was 94.2 ng/mL, the concentration at 12 h (male, 2 mg/kg, Mean Compound 1 Plasma Concentration, oral 2 mg/kg, Day 14, 12 h, Male) was 54 ng/mL and the AUC(0-t) [3] was 1390 ng·h/mL. For the same molecule, the Cmax [3] was 126 ng/mL, the Tmax [3] was 4 h and the half-life [3] was 5.32 h. The AUC(0-t) [4] was 1360 ng·h/mL, the Cmax [4] was 116 ng/mL and the Tmax [4] was 4 h. For the same molecule, the half-life [4] was 4.98 h.

From patent US20160220569A1, “CDK4/6 Inhibitor Dosage Formulations For The Protection Of Hematopoietic Stem And Progenitor Cells During Chemotherapy” (G1 Therapeutics, Inc., priority 2015, published 2016)
